# Assay results published in ChEMBL document CHEMBL1155846, “Selectivity determinants of inhibitor binding to human 20alpha-hydroxysteroid dehydrogenase: crystal structure of the enzyme in ternary complex with coenzyme and the potent inhibitor 3,5-dichlorosalicylic acid” (J Med Chem, 2008).
# Key:
# [1] = target: T1, Aldo-keto reductase family 1 member C3 (Homo sapiens, UniProt P42330); experiment: Inhibition of human recombinant AKR1C3
# T1 sequence (P42330 whole entry): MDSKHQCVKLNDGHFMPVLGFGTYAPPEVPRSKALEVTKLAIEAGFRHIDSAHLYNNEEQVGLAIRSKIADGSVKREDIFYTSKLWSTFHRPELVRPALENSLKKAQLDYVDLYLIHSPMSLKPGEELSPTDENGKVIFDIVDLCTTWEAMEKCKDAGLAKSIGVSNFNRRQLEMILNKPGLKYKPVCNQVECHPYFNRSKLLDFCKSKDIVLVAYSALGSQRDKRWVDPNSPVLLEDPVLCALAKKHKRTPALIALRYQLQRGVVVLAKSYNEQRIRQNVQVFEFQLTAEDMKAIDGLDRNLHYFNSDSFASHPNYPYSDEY
# [2] = target: T2, Aldo-keto reductase family 1 member C4 (Homo sapiens, UniProt P17516); experiment: Inhibition of human recombinant AKR1C4
# T2 sequence (P17516 whole entry): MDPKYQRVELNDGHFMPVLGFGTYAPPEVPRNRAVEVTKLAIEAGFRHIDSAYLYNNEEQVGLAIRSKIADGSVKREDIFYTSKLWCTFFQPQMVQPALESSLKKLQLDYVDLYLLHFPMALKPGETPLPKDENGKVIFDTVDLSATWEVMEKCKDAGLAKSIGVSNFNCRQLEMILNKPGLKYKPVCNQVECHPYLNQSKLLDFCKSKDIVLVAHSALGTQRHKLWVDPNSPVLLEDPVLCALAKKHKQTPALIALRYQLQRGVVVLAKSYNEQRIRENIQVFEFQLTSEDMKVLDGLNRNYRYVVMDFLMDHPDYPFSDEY
structure (smiles),measurement,setting,value
O=C(O)c1cc(Cl)cc(Cl)c1O,Ki,[1],94 µM
same,Ki,[2],24 µM
